± gives the expanded uncertainty stated by the source.

The nature of the data set: activity coefficient (dimensionless); of the first substance listed, at infinite dilution; xn = mol fraction of the nth substance listed. The following applies: 101.33 kPa, Liquid, Chromatography, x1 = 0.

As for `c1ccsc1` [thiophene] + CCCCCCCCCCCCCC[P+](CCCCCC)(CCCCCC)CCCCCC.N#C[N-]C#N, the activity coefficient reads like this: (313.15 K) 0.372 ± 0.044; (323.15 K) 0.383 ± 0.045; (333.15 K) 0.412 ± 0.048; (343.15 K) 0.429 ± 0.049.
For `C=CCCCCCCC` [1-nonene] + CCCCCCCCCCCCCC[P+](CCCCCC)(CCCCCC)CCCCCC.N#C[N-]C#N, in that order: 1.41 ± 0.15, 1.53 ± 0.16, 1.67 ± 0.17 and 1.82 ± 0.19.
For `CCc1ccccc1` [ethylbenzene] + CCCCCCCCCCCCCC[P+](CCCCCC)(CCCCCC)CCCCCC.N#C[N-]C#N, the activity coefficient is, setting by setting: (313.15 K) 0.567 ± 0.061; (323.15 K) 0.606 ± 0.064; (333.15 K) 0.653 ± 0.069; (343.15 K) 0.7 ± 0.073.
Take `CCCCC` [pentane] + CCCCCCCCCCCCCC[P+](CCCCCC)(CCCCCC)CCCCCC.N#C[N-]C#N: the activity coefficient was 1 ± 0.1 (313.15 K), 1.06 ± 0.11 (323.15 K), 1.12 ± 0.11 (333.15 K) and 1.19 ± 0.12 (343.15 K).
On to `CCO` [ethanol] + CCCCCCCCCCCCCC[P+](CCCCCC)(CCCCCC)CCCCCC.N#C[N-]C#N, for which the activity coefficient runs as follows: (313.15 K) 0.339 ± 0.042; (323.15 K) 0.359 ± 0.043; (333.15 K) 0.383 ± 0.045; (343.15 K) 0.401 ± 0.047.
The matching figures for `O` [water] + CCCCCCCCCCCCCC[P+](CCCCCC)(CCCCCC)CCCCCC.N#C[N-]C#N: 1.95 ± 0.2, 1.82 ± 0.19, 1.73 ± 0.18 and 1.6 ± 0.17.
For `CCC(C)(C)C` [2,2-dimethylbutane] + CCCCCCCCCCCCCC[P+](CCCCCC)(CCCCCC)CCCCCC.N#C[N-]C#N, in that order: 1.11 ± 0.11, 1.2 ± 0.12, 1.28 ± 0.13 and 1.35 ± 0.14.
For `CCCCCC` [hexane] + CCCCCCCCCCCCCC[P+](CCCCCC)(CCCCCC)CCCCCC.N#C[N-]C#N, in that order: 1.16 ± 0.12, 1.24 ± 0.13, 1.32 ± 0.14 and 1.39 ± 0.14.
Take `C=CCCCCC` [1-heptene] + CCCCCCCCCCCCCC[P+](CCCCCC)(CCCCCC)CCCCCC.N#C[N-]C#N: the activity coefficient by setting is: (313.15 K) 1.09 ± 0.11; (323.15 K) 1.13 ± 0.12; (333.15 K) 1.17 ± 0.12; (343.15 K) 1.22 ± 0.13.
For `C1=CCCCC1` [cyclohexene] + CCCCCCCCCCCCCC[P+](CCCCCC)(CCCCCC)CCCCCC.N#C[N-]C#N, in that order: 0.647 ± 0.068, 0.709 ± 0.074, 0.76 ± 0.079 and 0.813 ± 0.084.
For `C#CCCC` [1-pentyne] + CCCCCCCCCCCCCC[P+](CCCCCC)(CCCCCC)CCCCCC.N#C[N-]C#N, in that order: 0.413 ± 0.048, 0.465 ± 0.052, 0.547 ± 0.059 and 0.619 ± 0.066.
On to `CCC(C)=O` [butanone] + CCCCCCCCCCCCCC[P+](CCCCCC)(CCCCCC)CCCCCC.N#C[N-]C#N, for which the activity coefficient turned out to be 0.422 ± 0.048 (313.15 K), 0.448 ± 0.051 (323.15 K), 0.478 ± 0.053 (333.15 K) and 0.513 ± 0.056 (343.15 K).
In the case of `CCCO` [propan-1-ol] + CCCCCCCCCCCCCC[P+](CCCCCC)(CCCCCC)CCCCCC.N#C[N-]C#N, the activity coefficient runs as follows: (313.15 K) 0.396 ± 0.046; (323.15 K) 0.41 ± 0.047; (333.15 K) 0.424 ± 0.049; (343.15 K) 0.443 ± 0.05.
The matching figures for `CCCCO` [butan-1-ol] + CCCCCCCCCCCCCC[P+](CCCCCC)(CCCCCC)CCCCCC.N#C[N-]C#N: 0.421 ± 0.048, 0.445 ± 0.05, 0.453 ± 0.051 and 0.47 ± 0.052.
Take `CCCCCCCCCC` [decane] + CCCCCCCCCCCCCC[P+](CCCCCC)(CCCCCC)CCCCCC.N#C[N-]C#N: the activity coefficient (313.15 K) is 2.19 ± 0.23, the activity coefficient (323.15 K) amounted to 2.34 ± 0.25, the activity coefficient (333.15 K) worked out at 2.54 ± 0.27 and the activity coefficient (343.15 K) is 2.74 ± 0.29.
For `C#CCCCCC` [1-heptyne] + CCCCCCCCCCCCCC[P+](CCCCCC)(CCCCCC)CCCCCC.N#C[N-]C#N, in that order: 0.485 ± 0.054, 0.57 ± 0.061, 0.644 ± 0.068 and 0.721 ± 0.075.
For `CC(C)=O` [acetone] + CCCCCCCCCCCCCC[P+](CCCCCC)(CCCCCC)CCCCCC.N#C[N-]C#N, in that order: 0.35 ± 0.043, 0.363 ± 0.044, 0.383 ± 0.045 and 0.405 ± 0.047.
The matching figures for `C1CCOC1` [tetrahydrofuran] + CCCCCCCCCCCCCC[P+](CCCCCC)(CCCCCC)CCCCCC.N#C[N-]C#N: 0.351 ± 0.043, 0.365 ± 0.044, 0.384 ± 0.045 and 0.404 ± 0.047.
Take `C1CCCCC1` [cyclohexane] + CCCCCCCCCCCCCC[P+](CCCCCC)(CCCCCC)CCCCCC.N#C[N-]C#N: the activity coefficient runs as follows: (313.15 K) 0.733 ± 0.076; (323.15 K) 0.78 ± 0.081; (333.15 K) 0.832 ± 0.085; (343.15 K) 0.901 ± 0.092.
The matching figures for `CO` [methanol] + CCCCCCCCCCCCCC[P+](CCCCCC)(CCCCCC)CCCCCC.N#C[N-]C#N: 0.306 ± 0.04, 0.323 ± 0.041, 0.344 ± 0.042 and 0.361 ± 0.044.
On to `Cc1ccc(C)cc1` [1,4-dimethylbenzene] + CCCCCCCCCCCCCC[P+](CCCCCC)(CCCCCC)CCCCCC.N#C[N-]C#N, for which the activity coefficient was determined as 0.602 ± 0.064 (313.15 K), 0.64 ± 0.068 (323.15 K), 0.68 ± 0.071 (333.15 K) and 0.706 ± 0.074 (343.15 K).
Turning to `Cc1cccc(C)c1` [1,3-dimethylbenzene] + CCCCCCCCCCCCCC[P+](CCCCCC)(CCCCCC)CCCCCC.N#C[N-]C#N, the activity coefficient stood at 0.633 ± 0.067 (313.15 K), 0.654 ± 0.069 (323.15 K), 0.689 ± 0.072 (333.15 K) and 0.716 ± 0.075 (343.15 K).
`CCCCCCC` [heptane] + CCCCCCCCCCCCCC[P+](CCCCCC)(CCCCCC)CCCCCC.N#C[N-]C#N: the activity coefficient (313.15 K) amounted to 1.36 ± 0.14, the activity coefficient (323.15 K) was 1.43 ± 0.15, the activity coefficient (333.15 K) was determined as 1.52 ± 0.16 and the activity coefficient (343.15 K) worked out at 1.61 ± 0.17.
In the case of `CC#N` [acetonitrile] + CCCCCCCCCCCCCC[P+](CCCCCC)(CCCCCC)CCCCCC.N#C[N-]C#N, the activity coefficient (313.15 K) turned out to be 0.574 ± 0.062, the activity coefficient (323.15 K) stood at 0.6 ± 0.064, the activity coefficient (333.15 K) is 0.624 ± 0.066 and the activity coefficient (343.15 K) turned out to be 0.651 ± 0.069.
For `Cc1ccccc1C` [1,2-dimethylbenzene] + CCCCCCCCCCCCCC[P+](CCCCCC)(CCCCCC)CCCCCC.N#C[N-]C#N, in that order: 0.525 ± 0.057, 0.566 ± 0.061, 0.613 ± 0.065 and 0.651 ± 0.069.
For `C1CCCCCCC1` [cyclooctane] + CCCCCCCCCCCCCC[P+](CCCCCC)(CCCCCC)CCCCCC.N#C[N-]C#N, in that order: 0.89 ± 0.091, 0.928 ± 0.095, 0.978 ± 0.099 and 1.05 ± 0.11.
In the case of `C=CCCC` [1-pentene] + CCCCCCCCCCCCCC[P+](CCCCCC)(CCCCCC)CCCCCC.N#C[N-]C#N, the activity coefficient by setting is: (313.15 K) 0.796 ± 0.082; (323.15 K) 0.858 ± 0.088; (333.15 K) 0.922 ± 0.094; (343.15 K) 0.994 ± 0.1.
In the case of `C=CCCCC` [hex-1-ene] + CCCCCCCCCCCCCC[P+](CCCCCC)(CCCCCC)CCCCCC.N#C[N-]C#N, the activity coefficient was 0.915 ± 0.093 (313.15 K), 0.979 ± 0.1 (323.15 K), 1.06 ± 0.11 (333.15 K) and 1.11 ± 0.11 (343.15 K).
The matching figures for `C#CCCCC` [1-hexyne] + CCCCCCCCCCCCCC[P+](CCCCCC)(CCCCCC)CCCCCC.N#C[N-]C#N: 0.442 ± 0.05, 0.513 ± 0.056, 0.593 ± 0.063 and 0.669 ± 0.07.
The matching figures for `C=CCCCCCCCC` [1-decene] + CCCCCCCCCCCCCC[P+](CCCCCC)(CCCCCC)CCCCCC.N#C[N-]C#N: 1.58 ± 0.17, 1.77 ± 0.18, 1.98 ± 0.21 and 2.19 ± 0.23.
For `c1ccccc1` [benzene] + CCCCCCCCCCCCCC[P+](CCCCCC)(CCCCCC)CCCCCC.N#C[N-]C#N, in that order: 0.319 ± 0.04, 0.363 ± 0.044, 0.403 ± 0.047 and 0.44 ± 0.05.
Turning to `Cc1ccccc1` [toluene] + CCCCCCCCCCCCCC[P+](CCCCCC)(CCCCCC)CCCCCC.N#C[N-]C#N, the activity coefficient (313.15 K) amounted to 0.419 ± 0.048, the activity coefficient (323.15 K) was determined as 0.458 ± 0.051, the activity coefficient (333.15 K) is 0.489 ± 0.054 and the activity coefficient (343.15 K) was determined as 0.523 ± 0.057.
Turning to `CCCCCCCCC` [nonane] + CCCCCCCCCCCCCC[P+](CCCCCC)(CCCCCC)CCCCCC.N#C[N-]C#N, the activity coefficient amounted to 1.8 ± 0.19 (313.15 K), 1.93 ± 0.2 (323.15 K), 2.09 ± 0.22 (333.15 K) and 2.24 ± 0.23 (343.15 K).

The values above are taken from the NIST ThermoML archive (doi:10.1016/j.fluid.2019.03.023).
